According to patent US8759519B2, “Mono-hydrochloric salts of an inhibitor of histone deacetylase” (Janssen Pharmaceutica NV, priority 2007, dated 2014):
Where a name gives a salt, the structure may show the parent alone. Read-outs that look alike come from different tables or passages of the source.

Assays:
Format in all cases: physicochemical
[1] = Adsorption/desorption of water (dynamic vapor sorption); conditions: 25° C., hydrochloride
Protocol: The ADS/DES data were obtained using a SMS dynamic vapor sorption model DVS-1 and the weight change was recorded with tespect to the atmospheric humidity at 25° C. The weight of the samples was about 17 mg of Form I and 24 mg of Form II. The samples were dried for 60 min under dry nitrogen. The equilibrium was lower or equal to 0.01%/min. for minimal 15 min and maximal 60 min. The data interval was 0.05% or 2.0 min.
Relative Humidity (%) measurement points were:
The adsorption and desorption of water at 25° C. at different conditions of relative humidity was investigated on 17 mg Form I.
The weight change as a function of relative humidity was registered.
The adsorption and desorption of water at 25° C. at different conditions of relative humidity was investigated on about 24 mg Form II

[2] = Aqueous solubility in solvents with different pH; conditions: 20° C., read-out: Solubility (mg/ml solution)
Protocol: Aqueous solubilities of Form I were measured in solvents with different pH. An excess of the solute was equilibrated with the solvent at 20° C. for 24 hours. After removing the undissolved compound, the concentration in solution was determined using UV spectrometry.

[3] = Crystallographic stability after storage in open conditions (TGA, DSC, XRPD, IR); design: key to XRD / IR: ~Ref: identical with reference; Cryst.: crystalline; conditions: for IR / XRD: Table E
Protocol: The stability of the crystal structure of Form I was studied after storage of the compound in open conditions for a period of six weeks at room temperature (RT) under <5%, 56% and 75% relative humidity (RH), 50° C. and 40° C./75% RH.
The samples are analyzed with thermogravimetry (TGA), differential scanning calorimetry (DSC), X-ray powder diffraction (XRPD) and infrared spectroscopy (IR).
The stability of the crystal structure of Form II was studied after storage of the compound in open conditions for a period of six weeks at room temperature (RT) under <5%, 56% and 75% relative humidity (RH), 50° C. and 40° C./75% RH.
The samples were analyzed with thermogravimetry (TGA), differential scanning calorimetry (DSC), X-ray powder diffraction (XRPD) and infrared spectroscopy (IR).

[4] = Chemical stability after storage in open conditions (HPLC, visual inspection); conditions: for Appearance / HPLC Sum of impurities: hydrochloride
Protocol: Form I was stored in different open conditions for periods of 1, 4 and 8 weeks.
These conditions are 40° C./75% RH, 50° C., RT/<5% RH, RT/56% RH, RT/75% RH and 0.3 da ICH light.
The compounds were analyzed after storage by HPLC and by visual inspection.
Form II was stored in different open conditions for periods of 1, 4 and 8 weeks. These conditions were 40° C./75% RH, 50° C., RT/<5% RH, RT/56% RH, RT/75% RH and 0.3 da ICH light.

[5] = 0 days (reference), hydrochloride
[6] = six weeks open, 40° C./75% RH, hydrochloride
[7] = six weeks open, 50° C., hydrochloride
[8] = six weeks open, RT/56% RH, hydrochloride
[9] = six weeks open, RT/75% RH, hydrochloride
[10] = six weeks open, RT/<5% RH, hydrochloride

Cn1cc(CNCC2CCN(c3ncc(C(=O)NO)cn3)CC2)c2ccccc21 [Form I, N-hydroxy-2-[4-[[[(1-methyl-1H-indol-3-yl)methyl]amino]methyl]-1-piperidinyl]-5-pyrimidinecarboxamide hydrochloride]
hygroscopic behavior ([1]; adsorption/desorption test): no hygroscopic behavior
water adsorbed at high relative humidity ([1]; high relative humidity): up to 0.6%
crystallinity during the adsorption/desorption test [1]: remained crystalline
solubility thermodynamic at 24 h ([2]; aqueous buffer, 0.001N HCl (pH 2.9)): 1.5 mg/mL
solubility thermodynamic at 24 h ([2]; aqueous buffer, 0.01N HCl (pH 2.0)): 1.4 mg/mL
solubility thermodynamic at 24 h ([2]; aqueous buffer, Buffer pH 2 (citric acid/NaOH/HCl) (pH 2.0)): 0.95 mg/mL
solubility thermodynamic at 24 h ([2]; aqueous buffer, Buffer pH 4 (citric acid/HCl/NaOH) (pH 3.9)): 1.2 mg/mL
solubility thermodynamic at 24 h ([2]; aqueous buffer, Buffer pH 6 (citric acid/NaOH) (pH 6.0)): 1.5 mg/mL
solubility thermodynamic at 24 h ([2]; aqueous buffer, Buffer pH 8 (boric acid/HCl/NaOH) (pH 7.8)): 1.3 mg/mL
solubility thermodynamic at 24 h ([2]; aqueous buffer, Buffer pH 10 (boric acid/KCl/NaOH) (pH 9.8)): 1.3 mg/mL
solubility thermodynamic at 24 h ([2]; water (pH 4.5)): 1.4 mg/mL
DSC Exotherm Max (° C.) ([3]; 0 days (reference)): 216.8 °C
TGA <200° C. ([3]; 0 days (reference)): 0.9%
App (appearance) [3, 5]: Beige-gray
TGA <100° C. [3, 5]: 0.4%
IR ([3]; six weeks open, 40° C./75% RH): ~Ref
XRD ([3]; six weeks open, 40° C./75% RH): ~Ref
IR ([3]; six weeks open, 50° C.): ~Ref
XRD ([3]; six weeks open, 50° C.): ~Ref
IR ([3]; six weeks open, RT/56% RH): ~Ref
XRD ([3]; six weeks open, RT/56% RH): ~Ref
IR ([3]; six weeks open, RT/75% RH): ~Ref
XRD ([3]; six weeks open, RT/75% RH): ~Ref
IR ([3]; six weeks open, RT/<5% RH): ~Ref
XRD ([3]; six weeks open, RT/<5% RH): ~Ref
crystallographic stability (conclusion) ([3]; six weeks open storage under the different conditions, hydrochloride): crystallographically stable
DSC Exotherm Max (° C.) ([3]; six weeks open, 40° C./75% RH): 216.9 °C
TGA <200° C. ([3]; six weeks open, 40° C./75% RH): 0.3%
App (appearance) [3, 6]: Beige-gray
TGA <100° C. [3, 6]: 1%
DSC Exotherm Max (° C.) ([3]; six weeks open, 50° C.): 216.9 °C
TGA <200° C. ([3]; six weeks open, 50° C.): 0.3%
App (appearance) [3, 7]: Beige-gray
TGA <100° C. [3, 7]: 0.5%
DSC Exotherm Max (° C.) ([3]; six weeks open, RT/56% RH): 216.9 °C
TGA <200° C. ([3]; six weeks open, RT/56% RH): 0.4%
App (appearance) [3, 8]: Beige-gray
TGA <100° C. [3, 8]: 0.5%
DSC Exotherm Max (° C.) ([3]; six weeks open, RT/75% RH): 217.0 °C
TGA <200° C. ([3]; six weeks open, RT/75% RH): 0.4%
App (appearance) [3, 9]: Beige-gray
TGA <100° C. [3, 9]: 0.9%
DSC Exotherm Max (° C.) ([3]; six weeks open, RT/<5% RH): 216.7 °C
TGA <200° C. ([3]; six weeks open, RT/<5% RH): 0.5%
App (appearance) [3, 10]: Beige-gray
TGA <100° C. [3, 10]: 0.8%
Appearance ([4]; 0.3 da ICH light (1 week)): beige-gray
HPLC Sum of impurities ([4]; 0.3 da ICH light (1 week)): 4.58%
Appearance ([4]; 40° C./75% RH, 1 week): beige-gray
HPLC Sum of impurities ([4]; 40° C./75% RH, 1 week): 3.31%
Appearance ([4]; 40° C./75% RH, 4 weeks): beige-gray
HPLC Sum of impurities ([4]; 40° C./75% RH, 4 weeks): 3.13%
Appearance ([4]; 40° C./75% RH, 8 weeks): beige-gray
HPLC Sum of impurities ([4]; 40° C./75% RH, 8 weeks): 3.59%
Appearance ([4]; 50° C., 1 week): beige-gray
HPLC Sum of impurities ([4]; 50° C., 1 week): 3.19%
Appearance ([4]; 50° C., 4 weeks): beige-gray
HPLC Sum of impurities ([4]; 50° C., 4 weeks): 3.2%
Appearance ([4]; 50° C., 8 weeks): beige-gray
HPLC Sum of impurities ([4]; 50° C., 8 weeks): 3.16%
Appearance ([4]; RT/56% RH, 4 weeks): beige-gray
HPLC Sum of impurities ([4]; RT/56% RH, 4 weeks): 3.27%
Appearance ([4]; RT/56% RH, 8 weeks): beige-gray
HPLC Sum of impurities ([4]; RT/56% RH, 8 weeks): 3.15%
Appearance ([4]; RT/75% RH, 4 weeks): beige-gray
HPLC Sum of impurities ([4]; RT/75% RH, 4 weeks): 3.43%
Appearance ([4]; RT/75% RH, 8 weeks): beige-gray
HPLC Sum of impurities ([4]; RT/75% RH, 8 weeks): 3.39%
Appearance ([4]; RT/<5% RH, 4 weeks): beige-gray
HPLC Sum of impurities ([4]; RT/<5% RH, 4 weeks): 3.42%
Appearance ([4]; RT/<5% RH, 8 weeks): beige-gray
HPLC Sum of impurities ([4]; RT/<5% RH, 8 weeks): 3.16%
Appearance ([4]; Reference (1 week)): beige-gray
HPLC Sum of impurities ([4]; Reference (1 week)): 3.14%
sensitivity towards light (sum of impurities) ([4]; storage in 0.3 da ICH light conditions): showed a sensitivity towards light
